Source: US6518302B1, “Remedies” (Takara Shuzo Co., Ltd., priority 1999, dated 2003)
Where two headings read alike, the source gives them in different places.

Legend:
[1] = Conversion into DGE in culture medium (thin-layer chromatography); format: in vitro ADME; details: 10 mM in RPMI 1640 medium with 10% calf serum, 37° C., 4 hours
Method: The compound (7) or the compound (9) synthesized in Example 1 was dissolved at a final concentration of 10 mM in RPMI 1640 medium supplemented with 10% calf serum. These samples were allowed to stand at 37° C. for 4 hours. […] each of the samples was then subjected to thin-layer chromatography using chloroform:methanol=5:1 as a developing solvent. Detection was carried out using orcinol-sulfuric acid.
For each sample, a spot with Rf value of 0.5, the same value as that for the compound of general formula IV in which Z is CH2OH and Y is H (L-glycero-1,5-epoxy-1αβ,6-dihydroxy-cis-hex-3-en-2-one, hereinafter referred to as DGE), was detected.

[2] = system: Human promyelocytic leukemia HL-60 cells; assay: Antiproliferation activity against HL-60 cells (MTT method); format: cell-based; details: 48 hour incubation
Method: Human promyelocytic leukemia HL-60 cells (ATCC CCL-240) were cultured at 37° C. in RPMI 1640 medium (Gibco) containing 10% of fetal calf serum (JRH Bioscience) which had been treated at 56° C. for 30 minutes, and suspended in the same medium at a concentration of 5000 cells/90 μl. Each 90 μl portion of the suspension was distributed into each well of a 96-well plate (Falcon). To the suspension in each well was added 10 μl of one the following samples, and incubated at 37° C. in the presence of 5% CO2. The samples were 2-, 4-, 8-, 16-, 32-, 64- or 128-dilutions of filter-sterilized 200 mM aqueous solution of the compound (2) obtained in Example 1, 50 mM aqueous solution of the compound (7), 50 mM aqueous solution of the compound (9), 100 mM aqueous solution of the compound (11), 100 mM aqueous solution of the compound (14), 20 mM aqueous solution of the compound (17), 12.5 mM aqueous solution of the compound (19) or 12.5 mM aqueous solution of the compound (21) with sterile water, as well as water. After 48 hour from the initiation of the incubation, the numbers of viable cells calculated based on the absorbance measured according to the MTT method as described in “Apoptosis Jikken Protocol” (Syuzyun-sha, Seiichi Tanuma, ed., pp. 156 (1994)) were compared each other.

[3] = system: HL-60 (ATCC CCL-240) cells; assay: Apoptosis morphology in HL-60 cells under optical microscope; format: cell-based, Human; details: 24 hours
Method: (§1) HL-60 (ATCC CCL-240) cells were cultured at 37° C. in RPMI 1640 medium (Bio Whittaker) containing 10% fetal calf serum (JRH) which had been treated at 56° C. for 30 minutes and suspended in RPMI 1640 medium at a concentration of 2.5×10^5 cells/4.5 ml. […] each of aqueous solutions of the compound (2) at a concentration of 10, 50 or 100 mM, the compound (7) at a concentration of 500, 1000 or 1500 μM, the compound (9) at a concentration of 750, 1500 or 3000 μM, the compound (11) at a concentration of 750, 1500 or 3000 μM, or the compound (14) at a concentration of 750, 1500 or 3000 μM was added to 4.5 ml of the suspension. The mixtures were incubated at 37° C. for 24 hours in the presence of 5% CO2. The cultured cells were examined under an optical microscope.

[4] = system: HL-60 (ATCC CCL-240) cells; assay: Measurement of apoptotic cells using FACScan; format: cell-based, Human; details: HL-60 cells, 24 hours
Method: as §1, with “CO2. Measurement of apoptotic cells using FACScan as described in Saibo Kogaku, Bessatsu (Cell Technology, Suppl.) Jikken Protocol Series: Apoptosis Jikken Protocol (Experimental Protocol Series: Experimental Protocols for Apoptosis) (Shujun-sha) pp. 129-130 and analysis of DNA fragmentation as described in Bio Manual UP Series: […] Apoptosis Jikken-ho (Bio Manual UP Series: Current Experimental Methods for Apoptosis) (Yodo-sha) pp. 61-63 were carried out using cells” for “CO2. The”, “cultured for 24 or 48 hours in the same manner as that described above.” for “cultured cells were examined under an optical microscope.”

[5] = system: HL-60 (ATCC CCL-240) cells; assay: Analysis of DNA fragmentation; format: cell-based, Human; details: HL-60 cells
Method: as §1, with “CO2. Measurement of apoptotic cells using FACScan as described in Saibo Kogaku, Bessatsu (Cell Technology, Suppl.) Jikken Protocol Series: Apoptosis Jikken Protocol (Experimental Protocol Series: Experimental Protocols for Apoptosis) (Shujun-sha) pp. 129-130 and analysis of DNA fragmentation as described in Bio Manual UP Series: […] Apoptosis Jikken-ho (Bio Manual UP Series: Current Experimental Methods for Apoptosis) (Yodo-sha) pp. 61-63 were carried out using cells” for “CO2. The”, “cultured for 24 or 48 hours in the same manner as that described above.” for “cultured cells were examined under an optical microscope.”

[6] = system: HL-60 (ATCC CCL-240) cells; assay: Viability of HL-60 cells by Trypan Blue staining; format: cell-based; details: Homo sapiens, read-out: Viability50, concentration that results in a viability of 50%
Method: HL-60 (ATCC CCL-240) cells were cultured at 37° C. in RPMI 1640 medium (Bio Whittaker) containing 10% fetal calf serum (JRH) which had been treated at 56° C. for 30 minutes and suspended in RPMI 1640 medium at a concentration of 2.5×10^5 cells/4.5 ml.
[…] each of aqueous solutions of the compound (2) at a concentration of 10, 50 or 100 mM, the compound (7) at a concentration of 500, 1000 or 1500 μM, the compound (9) at a concentration of 750, 1500 or 3000 μM, the compound (11) at a concentration of 750, 1500 or 3000 μM, or the compound (14) at a concentration of 750, 1500 or 3000 μM was added to 4.5 ml of the suspension. The mixtures were incubated at 37° C. for 24 hours in the presence of 5% CO2.
A portion of the cells cultured for 24 or 48 hours as described in Example 4 was stained with 0.4% Trypan Blue and examined under an optical microscope. The number of viable cells which were not stained and the number of dead cells which were stained blue were counted. The concentration of each of the compounds (2), (7), (9), (11) and (14) that results in a viability of 50% (Viability50 mM) was determined.

- conversion into DGE (spot with Rf value of 0.5, the same value as DGE) [1]: conversion into DGE was also observed
- IC50 ([2]; Homo sapiens, HL-60 cells, read-out: IC50, concentration at which 50% of the proliferation is inhibited): 0.86 mM
- IC50 ([6]; 24 hours): 18.1 mM
- IC50 ([6]; 48 hours): 3.4 mM
Compound: O=C[C@H](O)[C@H]1OC[C@@H](O)[C@@H]1O [Compound (2), 3,6-anhydro-D-galactose, reference compound]
- antiproliferation activity against HL-60 cells [2]: exhibited antiproliferation activities
- final concentration at which condensation of nuclei, shrinking of cells and formation of apoptotic bodies were observed [3]: ≥ 5 mM
- final concentration at which apoptotic cells were observed [4]: ≥ 5 mM
- final concentration at which DNA fragmentation was observed ([5]; 24 hours): ≥ 5 mM
- final concentration at which DNA fragmentation was observed ([5]; 48 hours): ≥ 1 mM
